# Experimental data from US20250186960A1, “BIODEGRADABLE MICROCAPSULES AND A METHOD FOR THEIR PREPARATION” (priority 2022, published 2025).
# Experiment: Microcapsule fragrance loading quantification via GC
# Format: physicochemical
# Conditions: for Composition 2 (encapsulate wt %): level of the fragrance material in microcapsules of Example 21B; for Composition 2 (oil wt %) / Composition 1 (oil wt %): share of the fragrance material in the encapsulated oil; for Composition 2 (oil wt %): Example 21B; for Composition 1 (encapsulate wt %): level of the fragrance material in microcapsules of Example 21A; for Composition 1 (oil wt %): Example 21A
# Description: Fragrance levels in the microcapsule can be determined by extraction of the fragrance and injection into a GC column. An Agilent 8890 gas chromatograph is used, equipped with a HP-5MS column, and using hydrogen as carrier gas. Quantification is achieved by use of a calibration curve for the given fragrance material diluted in ethanol.
# To measure the total level of fragrance in an encapsulate sample, the capsules must first be broken by sonication, for example 1.0 g of encapsulate in 2.0 g of DI water with a Bandelin Sonopuls HD4200 ultrasonicator, equipped with probe TS104 for 1 minute at 30% amplitude (around 1.5 KJ in total). A few drops of aqueous potassium hydroxide solution (10% wt) are added before sonication to raise the pH of the solution above 11. While sonicating, ice is used to keep the temperature below room temperature (20° C.) to avoid any loss of fragrance through evaporation. A microscope is used to check visually if the capsules are fully broken. If not, sonication is repeated. Ethanol is added to the mixture, which is then mixed and centrifuged. The supernatant is collected and retained as the first extraction. The residue is mixed with ethanol again and centrifuged. The supernatant is collected and added to the first extraction. This is then diluted as appropriate and injected into the GC for analysis.
# To measure the level of free fragrance in the sample (i.e. the level of un-encapsulated fragrance), the encapsulate slurry is well mixed in DI water and filtered using a sterile cell strainer (40 μm Nylon mesh). The filtrate is diluted with ethanol and injected into the GC for analysis.
# The encapsulated fragrance level is the difference between the total fragrance and the free fragrance levels.
Molecule,Composition 2 (encapsulate wt %) [wt %],Composition 2 (oil wt %) [wt %],Composition 1 (encapsulate wt %) [wt %],Composition 1 (oil wt %) [wt %]
O=C(OCc1ccccc1)c1ccccc1O [Benzyl salicylate],0.66,22.5,–,–
OC/C=C/c1ccccc1 [Cinnamic alcohol],–,–,0.01,0.5
C/C=C/C(=O)C1C(C)C=CCC1(C)C (centres unmarked) [Delta damascone],0.53,18.1,0.54,29.5
C=C(C)[C@H]1CC=C(C)CC1 [Dipentene],0.63,21.5,–,–
CCCCCCCCCCCC#N [dodecane nitrile],–,–,0.79,43.2

# More lines, now with the values ahead:
Composition 2 (encapsulate wt %) [wt %],Composition 2 (oil wt %) [wt %],Composition 1 (encapsulate wt %) [wt %],Composition 1 (oil wt %) [wt %],Molecule
0.59,20.1,–,–,c1ccc(Oc2ccccc2)cc1 [Diphenyl oxide]
–,–,0.11,6.0,CC(C)=CCC/C(C)=C/CO [Geraniol]
–,–,0.39,21.3,CCC=C(C)C(O)CCCCC (centres unmarked) [Undecavertol]
0.52,17.7,–,–,Ortho tertiary butyl cyclo hexyl acetate
